Experimental data: patent US20250154686A1, “COMPOUND LIBRARY” (CHUGAI SEIYAKU KABUSHIKI KAISHA, priority 2021, published 2025)

Target: T1, Bcl-2 protein (Recombinant Human Bcl-2 Protein) (Homo sapiens, UniProt P10415)
T1 construct: purchased Novus Biologicals NBP2-34889
Test: AS-MS evaluation of binding of the Example 4 mixture library (1200 compounds/well) to Bcl-2, ASMS ratio (%)
Settings: AS-MS, Example 4 mixture library; for ASMS ratio (%) n = 1: Bcl-2, replicate n = 1; for ASMS ratio (%) n = 2: Bcl-2, replicate n = 2
Procedure, shortened: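 A pooled 1200-compound mixture (20 nM each final) was incubated with 20 μM recombinant human Bcl-2 in pH 7.4 Tris-HCl buffer with NaCl, Tween-20 and DTT for 1 h at 23° C. in the dark. Bound ligands were separated by spin-column SEC and measured by reverse-phase LC/MS; ASMS ratio (%) was calculated against protein-free unfiltered standard and protein-free SEC blank.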

T1 sequence (P10415 whole entry): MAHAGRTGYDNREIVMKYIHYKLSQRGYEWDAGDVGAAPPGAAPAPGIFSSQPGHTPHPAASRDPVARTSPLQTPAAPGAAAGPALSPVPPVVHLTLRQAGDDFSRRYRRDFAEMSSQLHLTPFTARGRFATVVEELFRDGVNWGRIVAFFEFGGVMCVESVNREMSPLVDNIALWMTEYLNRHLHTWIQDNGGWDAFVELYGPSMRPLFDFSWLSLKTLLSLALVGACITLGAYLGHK

Compound	ASMS ratio (%) n = 1	ASMS ratio (%) n = 2
CCOc1cncc(C#Cc2cncc(C(=O)N3CCN(c4ccc(C(=O)NS(=O)(=O)c5ccc(NCCSc6ccccc6)c(C(F)(F)F)c5)nn4)CC3)c2)c1 [Compound B2R010-01, 6-[4-[5-[2-(5-Ethoxypyridin-3-yl)ethynyl]pyridine-3-carbonyl]piperazin-1-yl]-N-[4-(2-phenylsulfanylethylamino)-3-(trifluoromethyl)phenyl]sulfonylpyridazine-3-carboxamide]	0.0%	0.0%
CCOc1cccc(-c2ccccc2CCC(=O)N2CCN(c3ccc(C(=O)NS(=O)(=O)c4ccc(NCCSc5ccccc5)c(C(F)(F)F)c4)nn3)CC2)c1 [Compound B2R011-01, 6-[4-[3-[2-(3-Ethoxyphenyl)phenyl]propanoyl]piperazin-1-yl]-N-[4-(2-phenylsulfanylethylamino)-3-(trifluoromethyl)phenyl]sulfonylpyridazine-3-carboxamide]	17.7%	−1.3%
CCOc1cncc(-c2ccccc2CCC(=O)N2CCN(c3ccc(C(=O)NS(=O)(=O)c4ccc(NCCSc5ccccc5)c(C(F)(F)F)c4)nn3)CC2)c1 [Compound B2R012-01, 6-[4-[3-[2-(5-Ethoxypyridin-3-yl)phenyl]propanoyl]piperazin-1-yl]-N-[4-(2-phenylsulfanylethylamino)-3-(trifluoromethyl)phenyl]sulfonylpyridazine-3-carboxamide]	15.8%	13.5%
CCOc1cccc(-c2ccc(C(=O)N3CCN(c4ccc(C(=O)NS(=O)(=O)c5ccc(NCCSc6ccccc6)c(C(F)(F)F)c5)nn4)CC3)c3ccccc23)c1 [Compound B2R013-01, 6-[4-[4-(3-Ethoxyphenyl)naphthalene-1-carbonyl]piperazin-1-yl]-N-[4-(2-phenylsulfanylethylamino)-3-(trifluoromethyl)phenyl]sulfonylpyridazine-3-carboxamide]	7.5%	7.7%
CCOc1cncc(-c2ccc(C(=O)N3CCN(c4ccc(C(=O)NS(=O)(=O)c5ccc(NCCSc6ccccc6)c(C(F)(F)F)c5)nn4)CC3)c3ccccc23)c1 [Compound B2R014-01, 6-[4-[4-(5-Ethoxypyridin-3-yl)naphthalene-1-carbonyl]piperazin-1-yl]-N-[4-(2-phenylsulfanylethylamino)-3-(trifluoromethyl)phenyl]sulfonylpyridazine-3-carboxamide]	18.6%	15.1%
CCOc1cccc(-c2cc(C(=O)N3CCN(c4ccc(C(=O)NS(=O)(=O)c5ccc(NCCSc6ccccc6)c(C(F)(F)F)c5)nn4)CC3)cc(C(C)(C)C)c2)c1 [Compound B2R015-01, 6-[4-[3-tert-Butyl-5-(3-ethoxyphenyl)benzoyl]piperazin-1-yl]-N-[4-(2-phenylsulfanylethylamino)-3-(trifluoromethyl)phenyl]sulfonylpyridazine-3-carboxamide]	9.7%	0.0%
CCOc1cncc(-c2cc(C(=O)N3CCN(c4ccc(C(=O)NS(=O)(=O)c5ccc(NCCSc6ccccc6)c(C(F)(F)F)c5)nn4)CC3)cc(C(C)(C)C)c2)c1 [Compound B2R016-01, 6-[4-[3-tert-Butyl-5-(5-ethoxypyridin-3-yl)benzoyl]piperazin-1-yl]-N-[4-(2-phenylsulfanylethylamino)-3-(trifluoromethyl)phenyl]sulfonylpyridazine-3-carboxamide]	9.1%	2.7%
CCOc1cccc(-c2cc(C(=O)N3CCN(c4ccc(C(=O)NS(=O)(=O)c5ccc(NCCSc6ccccc6)c(C(F)(F)F)c5)nn4)CC3)cc(C(F)(F)F)c2)c1 [Compound B2R017-01, 6-[4-[3-(3-Ethoxyphenyl)-5-(trifluoromethyl)benzoyl]piperazin-1-yl]-N-[4-(2-phenylsulfanylethylamino)-3-(trifluoromethyl)phenyl]sulfonylpyridazine-3-carboxamide]	32.9%	27.2%
CCOc1cncc(-c2cc(C(=O)N3CCN(c4ccc(C(=O)NS(=O)(=O)c5ccc(NCCSc6ccccc6)c(C(F)(F)F)c5)nn4)CC3)cc(C(F)(F)F)c2)c1 [Compound B2R018-01, 6-[4-[3-(5-Ethoxypyridin-3-yl)-5-(trifluoromethyl)benzoyl]piperazin-1-yl]-N-[4-(2-phenylsulfanylethylamino)-3-(trifluoromethyl)phenyl]sulfonylpyridazine-3-carboxamide]	5.1%	7.8%
CCOc1cccc(C#Cc2cc(C(=O)N3CCN(c4ccc(C(=O)NS(=O)(=O)c5ccc(NCCSc6ccccc6)c(C(F)(F)F)c5)nn4)CC3)cc(C(F)(F)F)c2)c1 [Compound B2R019-01, 6-[4-[3-[2-(3-Ethoxyphenyl)ethynyl]-5-(trifluoromethyl)benzoyl]piperazin-1-yl]-N-[4-(2-phenylsulfanylethylamino)-3-(trifluoromethyl)phenyl]sulfonylpyridazine-3-carboxamide]	5.2%	14.0%
CCOc1cncc(C#Cc2cc(C(=O)N3CCN(c4ccc(C(=O)NS(=O)(=O)c5ccc(NCCSc6ccccc6)c(C(F)(F)F)c5)nn4)CC3)cc(C(F)(F)F)c2)c1 [Compound B2R020-01, 6-[4-[3-[2-(5-Ethoxypyridin-3-yl)ethynyl]-5-(trifluoromethyl)benzoyl]piperazin-1-yl]-N-[4-(2-phenylsulfanylethylamino)-3-(trifluoromethyl)phenyl]sulfonylpyridazine-3-carboxamide]	10.8%	−17.7%
CCOc1cccc(-c2cnn(-c3cc(C(=O)N4CCN(c5ccc(C(=O)NS(=O)(=O)c6ccc(NCCSc7ccccc7)c(C(F)(F)F)c6)nn5)CC4)cc(C(F)(F)F)c3)c2)c1 [Compound B2R021-01, 6-[4-[3-[4-(3-Ethoxyphenyl)pyrazol-1-yl]-5-(trifluoromethyl)benzoyl]piperazin-1-yl]-N-[4-(2-phenylsulfanylethylamino)-3-(trifluoromethyl)phenyl]sulfonylpyridazine-3-carboxamide]	13.0%	0.0%
CCOc1cncc(-c2cnn(-c3cc(C(=O)N4CCN(c5ccc(C(=O)NS(=O)(=O)c6ccc(NCCSc7ccccc7)c(C(F)(F)F)c6)nn5)CC4)cc(C(F)(F)F)c3)c2)c1 [Compound B2R022-01, 6-[4-[3-[4-(5-Ethoxypyridin-3-yl)pyrazol-1-yl]-5-(trifluoromethyl)benzoyl]piperazin-1-yl]-N-[4-(2-phenylsulfanylethylamino)-3-(trifluoromethyl)phenyl]sulfonylpyridazine-3-carboxamide]	14.5%	15.8%
CCOc1cccc(-c2csc(C(=O)N3CCN(c4ccc(C(=O)NS(=O)(=O)c5ccc(NCCSc6ccccc6)c(C(F)(F)F)c5)cc4)CC3)c2)c1 [Compound B2R023-01, 4-[4-[4-(3-Ethoxyphenyl)thiophene-2-carbonyl]piperazin-1-yl]-N-[4-(2-phenylsulfanylethylamino)-3-(trifluoromethyl)phenyl]sulfonylbenzamide]	0.0%	−15.5%
CCOc1cncc(-c2csc(C(=O)N3CCN(c4ccc(C(=O)NS(=O)(=O)c5ccc(NCCSc6ccccc6)c(C(F)(F)F)c5)cc4)CC3)c2)c1 [Compound B2R024-01, 4-[4-[4-(5-Ethoxypyridin-3-yl)thiophene-2-carbonyl]piperazin-1-yl]-N-[4-(2-phenylsulfanylethylamino)-3-(trifluoromethyl)phenyl]sulfonylbenzamide]	0.0%	−1.2%
CCOc1cccc(-c2ccc(C(=O)N3CCN(c4ccc(C(=O)NS(=O)(=O)c5ccc(NCCSc6ccccc6)c(C(F)(F)F)c5)cc4)CC3)cc2C)c1 [Compound B2R025-01, 4-[4-[4-(3-Ethoxyphenyl)-3-methylbenzoyl]piperazin-1-yl]-N-[4-(2-phenylsulfanylethylamino)-3-(trifluoromethyl)phenyl]sulfonylbenzamide]	−1.0%	−2.4%
CCOc1cncc(-c2ccc(C(=O)N3CCN(c4ccc(C(=O)NS(=O)(=O)c5ccc(NCCSc6ccccc6)c(C(F)(F)F)c5)cc4)CC3)cc2C)c1 [Compound B2R026-01, 4-[4-[4-(5-Ethoxypyridin-3-yl)-3-methylbenzoyl]piperazin-1-yl]-N-[4-(2-phenylsulfanylethylamino)-3-(trifluoromethyl)phenyl]sulfonylbenzamide]	1.7%	−4.6%
CCOc1cccc(-c2ccc(C(=O)N3CCN(c4ccc(C(=O)NS(=O)(=O)c5ccc(NCCSc6ccccc6)c(C(F)(F)F)c5)cc4)CC3)cc2F)c1 [Compound B2R027-01, 4-[4-[4-(3-Ethoxyphenyl)-3-fluorobenzoyl]piperazin-1-yl]-N-[4-(2-phenylsulfanylethylamino)-3-(trifluoromethyl)phenyl]sulfonylbenzamide]	−3.7%	1.2%
CCOc1cncc(-c2ccc(C(=O)N3CCN(c4ccc(C(=O)NS(=O)(=O)c5ccc(NCCSc6ccccc6)c(C(F)(F)F)c5)cc4)CC3)cc2F)c1 [Compound B2R028-01, 4-[4-[4-(5-Ethoxypyridin-3-yl)-3-fluorobenzoyl]piperazin-1-yl]-N-[4-(2-phenylsulfanylethylamino)-3-(trifluoromethyl)phenyl]sulfonylbenzamide]	4.1%	−0.5%
